# Calls of active or inactive are those of the source. The rule behind the calls is not given here.
# Experiments:
# NCI-H460 [1] = assay: Cytotoxicity against human NCI-H460 cells assessed as reduction in cell viability measured after 72 hrs by CCK8 assay; assay type: cell-based; conditions: NCI-H460, 72 h
# NCI-H460 [2] = assay: Cytotoxicity against mitoxantrone-selected ABCG2-overexpressing human NCI-H460/MX20 cells assessed as reduction in cell viability measured after 72 hrs by CCK8 assay; assay type: ADME, cell-based; conditions: NCI-H460, 72 h
# HEK293 [3] = assay: Cytotoxicity against ABCG2-overexpressing human HEK293/482R cells assessed as reduction in cell viability measured after 72 hrs by CCK8 assay; assay type: ADME, cell-based; conditions: HEK293, 72 h
# ABCG2 [4] = assay: Resistance factor, ratio of IC50 for mitoxantrone-selected ABCG2-overexpressing human NCI-H460/MX20 cells to IC50 for human NCI-H460 cells; assay type: ADME; conditions: read-out: Ratio IC50
# NCI-H460 [5] = assay: Chemo-sensitizing activity against mitoxantrone-selected ABCG2-overexpressing human NCI-H460/MX20 cells assessed as reversal fold at 2 uM measured after 72 hrs in presence of topotecan by CCK8 assay relative to control; assay type: functional
# NCI-H460 [6] = assay: Chemo-sensitizing activity against human NCI-H460 cells assessed as reversal fold at 1 uM measured after 72 hrs in presence of SN-38 by CCK8 assay relative to control; assay type: functional
# A549 [7] = assay: Chemo-sensitizing activity against human A549 cells assessed as reversal fold at 5 uM measured after 72 hrs in presence of mitoxantrone by CCK8 assay relative to control; assay type: functional
# A549 [8] = assay: Chemo-sensitizing activity against human A549 cells assessed as reversal fold at 1 uM measured after 72 hrs in presence of topotecan by CCK8 assay relative to control; assay type: functional
# A549 [9] = assay: Chemo-sensitizing activity against becatecarin-selected ABCG2-overexpressing human A549/Bec150 cells assessed as reversal fold at 1 uM measured after 72 hrs in presence of SN-38 by CCK8 assay relative to control; assay type: functional
# HEK293 [10] = assay: Chemo-sensitizing activity against human HEK293 cells assessed as reversal fold at 1 uM measured after 72 hrs in presence of mitoxatrone by CCK8 assay relative to control; assay type: functional
# HEK293 [11] = assay: Chemo-sensitizing activity against ABCG2-overexpressing human HEK293/482R cells assessed as reversal fold at 1 uM measured after 72 hrs in presence of mitoxatrone by CCK8 assay relative to control; assay type: functional
# HEK293 [12] = assay: Chemo-sensitizing activity against ABCG2-overexpressing human HEK293/482R cells assessed as reversal fold at 2 uM measured after 72 hrs in presence of mitoxatrone by CCK8 assay relative to control; assay type: functional
# HEK293 [13] = assay: Chemo-sensitizing activity against human HEK293 cells assessed as reversal fold at 2 uM measured after 72 hrs in presence of topotecan by CCK8 assay relative to control; assay type: functional
# OVCAR-8 [14] = assay: Chemo-sensitizing activity against human OVCAR-8 cells assessed as reversal fold at 1 uM measured after 72 hrs in presence of paclitaxel by CCK8 assay relative to control; assay type: functional
# OVCAR-8 [15] = assay: Chemo-sensitizing activity against human OVCAR-8 cells assessed as reversal fold at 1 uM measured after 72 hrs in presence of colchicine by CCK8 assay relative to control; assay type: functional
# KB 3-1 = assay: Chemo-sensitizing activity against human KB 3-1 cells assessed as reversal fold at 1 uM measured after 72 hrs in presence of vincristine by CCK8 assay relative to control; assay type: functional
# KB-V1 [16] = assay: Chemo-sensitizing activity against ABCB1-overexpressing human KB-V1 cells assessed as reversal fold at 5 uM measured after 72 hrs in presence of vincristine by CCK8 assay relative to control; assay type: functional
# KB-V1 [17] = assay: Chemo-sensitizing activity against ABCB1-overexpressing human KB-V1 cells assessed as reversal fold at 1 uM measured after 72 hrs in presence of paclitaxel by CCK8 assay relative to control; assay type: functional
# HEK293 [18] = assay: Chemo-sensitizing activity against human HEK293 cells assessed as reversal fold at 1 uM measured after 72 hrs in presence of vincristine by CCK8 assay relative to control; assay type: functional
# HEK293 [19] = assay: Chemo-sensitizing activity against human HEK293 cells assessed as reversal fold at 2 uM measured after 72 hrs in presence of vincristine by CCK8 assay relative to control; assay type: functional
# HEK293 [20] = assay: Chemo-sensitizing activity against human HEK293 cells assessed as reversal fold at 5 uM measured after 72 hrs in presence of vincristine by CCK8 assay relative to control; assay type: functional
# HEK293 [21] = assay: Chemo-sensitizing activity against ABCB1-overexpressing human HEK293/MDR19 cells assessed as reversal fold at 5 uM measured after 72 hrs in presence of vincristine by CCK8 assay relative to control; assay type: functional
# HEK293 [22] = assay: Chemo-sensitizing activity against ABCB1-overexpressing human HEK293/MDR19 cells assessed as reversal fold at 5 uM measured after 72 hrs in presence of paclitaxel by CCK8 assay relative to control; assay type: functional
# HEK293 [23] = assay: Chemo-sensitizing activity against human HEK293 cells assessed as reversal fold at 1 uM measured after 72 hrs in presence of colchicine by CCK8 assay relative to control; assay type: functional
# HEK293 [24] = assay: Chemo-sensitizing activity against human HEK293 cells assessed as reversal fold at 5 uM measured after 72 hrs in presence of colchicine by CCK8 assay relative to control; assay type: functional
# ABCG2 [25] = target: T1, ABCG2 (Homo sapiens, UniProt Q9UNQ0); assay: Inhibition of ABCG2 in becatecarin-selected ABCG2-overexpressing human A549/Bec150 cells assessed as increase in intracellular mitoxantrone accumulation at 20 uM incubated for 1 hr in presence of mitoxantrone by flow cytometry; assay type: cell-based; conditions: probe mitoxantrone
# T1 sequence (Q9UNQ0 whole entry): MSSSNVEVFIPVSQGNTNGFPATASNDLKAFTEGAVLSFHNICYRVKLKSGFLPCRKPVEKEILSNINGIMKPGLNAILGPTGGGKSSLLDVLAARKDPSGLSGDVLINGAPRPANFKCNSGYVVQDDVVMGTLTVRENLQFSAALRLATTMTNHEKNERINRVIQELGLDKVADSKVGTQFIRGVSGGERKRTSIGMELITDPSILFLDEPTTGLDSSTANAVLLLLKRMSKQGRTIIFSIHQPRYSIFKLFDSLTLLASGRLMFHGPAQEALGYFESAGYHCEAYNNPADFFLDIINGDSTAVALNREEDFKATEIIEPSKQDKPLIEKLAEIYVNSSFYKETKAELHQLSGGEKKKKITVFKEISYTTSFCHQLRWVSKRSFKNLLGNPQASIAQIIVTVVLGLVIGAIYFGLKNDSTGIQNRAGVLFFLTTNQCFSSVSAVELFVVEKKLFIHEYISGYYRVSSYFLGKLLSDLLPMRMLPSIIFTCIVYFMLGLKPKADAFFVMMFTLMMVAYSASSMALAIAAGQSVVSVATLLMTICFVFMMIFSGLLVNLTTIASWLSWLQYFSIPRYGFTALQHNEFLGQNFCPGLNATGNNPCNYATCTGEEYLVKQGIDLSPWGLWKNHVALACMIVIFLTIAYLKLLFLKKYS
# A549 [26] = assay: Effect on ABCG2 protein expression in becatecarin-selected ABCG2-overexpressing human A549/Bec150 cells at 1 to 5 uM incubated for 72 hrs by immunoblot analysis; assay type: functional, cell-based; conditions: dose 1-5 µM
smiles,measurement,setting,value
C=C(C)[C@H](CC=C(C)C)Cc1c(O)cc(O)c2c1O[C@H](c1ccc(O)cc1O)CC2=O [SOPHORAFLAVANONE G],IC50,NCI-H460 [1],29.3 µM
same,IC50,NCI-H460 [2],22.1 µM
same,IC50,HEK293 [3],49.7 µM
same,selectivity ratio,ABCG2 [4],0.8
same,fold change (FC),NCI-H460 [5],7.2
same,fold change (FC),NCI-H460 [6],1.3
same,fold change (FC),A549 [7],1.8
same,fold change (FC),A549 [8],1.1
same,fold change (FC),A549 [9],1.7
same,fold change (FC),HEK293 [10],1
same,fold change (FC),HEK293 [11],2.6
same,fold change (FC),HEK293 [12],3.2
same,fold change (FC),HEK293 [13],0.9
same,fold change (FC),OVCAR-8 [14],0.8
same,fold change (FC),OVCAR-8 [15],1
same,fold change (FC),KB 3-1,1.1
same,fold change (FC),KB-V1 [16],1.3
same,fold change (FC),KB-V1 [17],0.9
same,fold change (FC),HEK293 [18],1
same,fold change (FC),HEK293 [19],0.6
same,fold change (FC),HEK293 [20],0.9
same,fold change (FC),HEK293 [21],2.2
same,fold change (FC),HEK293 [22],1.3
same,fold change (FC),HEK293 [23],1
same,fold change (FC),HEK293 [24],1
same,"inhibition at 1 h, 20 µM",ABCG2 [25],100%
same,Activity,A549 [26],inactive
